Measured values: patent publication US20260217701A1, “SELECTIVE BET INHIBITORS AND USES THEREOF” (Tay Therapeutics Limited, priority 2022, published 2026)
Several values for one entry are separate records, joined by “and”; a condition that tells them apart may be missing. Identical values can stand only once. Entries after “also recorded” stand apart in the source; their conditions may differ.

Legend:
[1] = tested on: Col1a1, TGB-b1, MCP-1, IL-1b, IL-6, IL-17, TNF-α, Timp1; experiment: UUO study: tissue RNA levels of biomarkers; format: in vivo, rats
Description: Tables 29A-29B and FIGS. 28A-28B show tissue RNA levels of various biomarkers (Col1a1, TGB-b1, MCP-1, IL-1b, IL-6, IL-17, TNF-α, and Timp1) in sham rats (black bar in FIG. 28A; square shape in FIG. 28B), UUO rats treated with vehicle (grey bar in FIG. 28A; circle shape in FIG. 28B), and UUO rats treated with Compound A (white bar in FIG. 28A; triangle shape in FIG. 28B). […] FIG. 28C further illustrates gene expression levels of Col1a1, TGB-b1, IL-1b, IL-17, MCP-1, and IL-6 relative to the vehicle control. […] To place this reduction in context, IL-6 is said to be a significant contributor to a continued inflammatory response in certain nephritis conditions.

[2] = tested on: idiopathic pulmonary fibrosis (bleomycin); experiment: Bleomycin IPF model: lung histology, Masson's Trichrome with Ashcroft scoring; format: in vivo, C57BI/6J mice; conditions: for Ashcroft scores relative to IPF control group: Day 21
Procedure: Animals were acclimated for two weeks prior to study initiation, and were randomized into the experimental groups outlined in Table 32. Intratracheal (IT) administration of Bleo or PBS control was conducted at the start of the study (Day 0). […] Following administration of Bleo, animals (n=10/group) were included in the study if they met the following guidelines on Day 7: […] A resection of the right lung was weighed and homogenized to determine total hydroxyproline levels by colorimetric assay, and the remaining lung lysate was saved for future analyses. For the morphological assessments, the left lung was inflation-fixed at 25 cm of water pressure with 4% paraformaldehyde in PBS for 1 minute, processed, and then sectioned. Morphological analysis of the lung was conducted using H&E-stained slides. Additional histologic stains for morphological analyses included Masson's Trichrome staining with Ashcroft scoring to determine severity of fibrosis.

[3] = tested on: idiopathic pulmonary fibrosis (bleomycin); experiment: Bleomycin IPF model: functional lung volume by micro-CT; format: in vivo, C57BI/6J mice; parameters: Functional Lung Volume, Mean: unit not given here; conditions: Day 21
Procedure: Animals were acclimated for two weeks prior to study initiation, and were randomized into the experimental groups outlined in Table 32. Intratracheal (IT) administration of Bleo or PBS control was conducted at the start of the study (Day 0). […] Following administration of Bleo, animals (n=10/group) were included in the study if they met the following guidelines on Day 7: […] Micro-CT imaging was also performed on Day 7 to determine relative fibrosis and on Day 21. […] Images were acquired with a respiratory gated technique with the following parameters: X-ray tube voltage: 90 KV; X-ray tube current: 88 μA; total scan time: 4 minutes. The system was calibrated monthly with standard phantoms for noise, uniformity, low contrast, and resolution to ensure consistency.

[4] = UUO rats + Compound A, N=8, relative to UUO + Vehicle = 1.00
[5] = UUO rats, tissue, Compound A 10mg/kg QD, individual animals, 10 mg/kg
[6] = Bleo + Compound A (1 mg/kg) OG QOD from D7
[7] = Bleo + Compound A (3 mg/kg) OG QOD from D7
[8] = Bleo + Compound A (10 mg/kg) OG QOD from D7

SMILES: Cn1cc(-c2ccccc2)c(-c2cn(C)c(=O)c3[nH]c(-c4cnn(C(F)(F)F)c4)cc23)cc1=O [Compound A, 6-methyl-4-(1-methyl-2-oxo-5-phenyl-1,2-dihydropyridin-4-yl)-2-(1-(trifluoromethyl)-1H-pyrazol-4-yl)-1,6-dihydro-7H-pyrrolo[2,3-c]pyridin-7-one]
- Col1a1 RNA level, Mean ± SEM [1, 4]: 0.39 ± 0.04
- IL-1b RNA level, Mean ± SEM [1, 4]: 0.31 ± 0.03
- IL-6 RNA level, Mean ± SEM [1, 4]: 0.11 ± 0.02
- IL-17 RNA level, Mean ± SEM [1, 4]: 0.35 ± 0.07
- MCP-1 RNA level, Mean ± SEM [1, 4]: 0.33 ± 0.05
- TGF-b1 RNA level, Mean ± SEM [1, 4]: 0.52 ± 0.05
- TNF-a RNA level, Mean ± SEM [1, 4]: 1.00 ± 0.11
- Timp1 RNA level, Mean ± SEM [1, 4]: 0.54 ± 0.09
- Col1a1 RNA level, Normalized Fold Change [1, 5]: 0.51 and 0.31 and 0.19 and 0.50 (2×) and 0.40 and 0.34 and 0.41
- IL-1b RNA level, Normalized Fold Change [1, 5]: 0.37 and 0.28 and 0.24 (3×) and 0.45 and 0.23 and 0.40
- IL-6 RNA level, Normalized Fold Change [1, 5]: 0.11 (2×) and 0.09 and 0.04 and 0.14 and 0.18 and 0.13 and 0.05
- IL-17 RNA level, Normalized Fold Change [1, 5]: 0.37 and 0.14 and 0.26 and 0.51 and 0.12 and 0.45 and 0.72 and 0.20
- MCP-1 RNA level, Normalized Fold Change [1, 5]: 0.48 and 0.24 and 0.18 and 0.34 and 0.44 and 0.25 and 0.50 and 0.20
- TGF-b1 RNA level, Normalized Fold Change [1, 5]: 0.71 and 0.42 and 0.28 and 0.58 and 0.64 (2×) and 0.40 and 0.50
- TNF-a RNA level, Normalized Fold Change [1, 5]: 1.50 and 1.16 and 1.00 and 0.79 and 1.05 and 0.62 and 1.20 and 0.64
- Timp1 RNA level, Normalized Fold Change [1, 5]: 0.83 and 0.41 and 0.36 and 0.72 (2×) and 0.66 and 0.09 and 0.52
- Tissue RNA level of TNF-α ([1]; UUO rats, 10 mg/kg): no observable effect
- Tissue RNA levels of Col1a1, TGB-b1, MCP-1, IL-1b, IL-6, IL-17, Timp1 ([1]; UUO rats, 10 mg/kg PO QD, vs vehicle, 10 mg/kg): reduced levels of Colla1, TGB-b1, MCP-1, IL-1b, IL-6, IL-17, and Timp1; also recorded: markedly lower
- Ashcroft Scoring, Max [2, 6]: 7
- Ashcroft Scoring, Mean [2, 6]: 5.25
- Ashcroft Scoring, Min [2, 6]: 4
- Ashcroft Scoring, Max [2, 7]: 5
- Ashcroft Scoring, Mean [2, 7]: 4.416
- Ashcroft Scoring, Min [2, 7]: 3
- Ashcroft Scoring, Max [2, 8]: 5
- Ashcroft Scoring, Mean [2, 8]: 3.708
- Ashcroft Scoring, Min [2, 8]: 2
- Ashcroft scores relative to IPF control group ([2]; 1, 3, 10 mg/kg): decreased Ashcroft scores
- Ashcroft scores relative to IPF control group ([2]; Group 5, 10 mg/kg): significantly reduced Ashcroft scores
- Fibrosis in lung tissue (Masson's Trichrome) compared to Group 2 (Bleo+Saline) ([2]; Group 5 (Compound A 10) and Group 6 (Pirfenidone)): qualitatively diminished
- Functional Lung Volume, Mean [3, 6]: 283.165
- Functional Lung Volume, Mean [3, 7]: 343.5975
- Functional Lung Volume, Mean [3, 8]: 452.7838
- Mean improvement in functional lung volume compared to Group 2 ([3]; Group 5, 10 mg/kg): ~52.7%
